These results are taken from US12576169B2, “Silicon-fluoride acceptor substituted radiopharmaceuticals and precursors thereof” (Technische Universität München, priority 2019, dated 2026).

One data set addresses PSMA (Homo sapiens, UniProt Q04609). Nature of the data set: IC50 determination: PSMA binding affinity, competition with [125I]XII on LNCaP cells.
Data set [1] concerns the target T1, human serum albumin (HSA) (Homo sapiens, UniProt P02768).
T1 construct: purchased H13H-2433
Nature of the data set: Binding to HSA on a Chiralpak HSA column. In kind it is in vitro ADME. The settings on record: calibration with nine reference substances. The protocol: For the determination of human serum albumin (HSA) binding, a Chiralpak HSA column (50×3 mm, 5 μm, H13H-2433) was used at a constant flow rate of 0.5 mL/min. The mobile phase composed of a 50 mM NH4OAc solution in water with pH=7 (solvent C) and isopropanol (solvent D) was freshly prepared for each experiment and used only once. The reference substances (Table 1) as well as the analyzed SiFA-PSMA ligands were dissolved in a mixture of solvent C/solvent D (1:1, v/v, 0.5 mg/mL) and eluted from the HSA column (0-3 min: 100% C, 3-20 min: 20% D in C, λ=254 nm). The column was kept at rt and each run was stopped after detection of the signal to reduce the acquisition time. The nine reference substances display an HSA binding range of 13% to 99% and were injected consecutively in order to establish a sigmoidal calibration curve with the software OriginPro 2018b (FIG. 1).

A short description of data set [2]: n-Octanol-PBS partition coefficient (logD7.4). Particulars: 18F-labeled ligand; n-octanol/PBS pH=7.4; mean ± SD (n = 5). In kind it is physicochemical. The protocol: Approx. 0.5 MBq of the ^18F-labeled SiFA-PSMA ligand were added into a test tube containing n-octanol (500 μL) and PBS (500 μL, pH=7.4). After vigorously shaking the two-phase mixture for 3 min at rt, the test tube was centrifuged at 9.000 rpm for 5 min to achieve quantitative phase separation. Finally, 150 μL of each layer were pipetted off and measured for activity using a gamma counter. After repeating the experiment for at least five times, the n-octanol-PBS partition coefficient log D7.4 was calculated according to following formula.

The test system of the next data set is LNCaP cells. Nature of the data set: Internalization of 18F-labeled ligands into LNCaP cells. In kind it is cell-based, human. The settings on record: internalized activity at 1 h in % of reference [125I]XII; c = 0.5 nM; LNCaP cells (125.000 cells/well); 37° C., DMEM/F-12 add. 5% BSA; corrected for non-specific binding (10 μm PMPA); mean ± SD (n = 3). The protocol: LNCaP cells were grown in DMEM/F-12 (add. 10% FCS, v/v) and maintained at 37° C. in a humidified 5% CO2 atmosphere. […] Subsequent to the removal of the culture medium, cells were washed with DMEM-F12 (add. 5% BSA, v/v, 500 μL) and left to equilibrate in DMEM-F12 (add. 5% BSA, v/v, 200 μL) at 37° C. for 15 min. Each well was treated with either DMEM-F12 (add. 5% BSA, v/v, 25 μL) or a 2-(phosphonomethyl)-pentandioic acid (PMPA) solution (100 μM in PBS, 25 μL) for blockade. Afterwards, the ^18F-labeled SiFA-PSMA ligand (5 nM in PBS, 25 μL) was added and the cells were incubated for 1 h at 37° C. The experiment was terminated by placing the 24-well plate on ice for 3 min and removal of the assay medium. Each well was rinsed with HBSS (4° C., 250 μL) and the fractions were combined with the previous assay medium, representing the amount of unbound radioligand. For removal of surface bound activity, LNCaP cells were incubated with PMPA solution (10 μM in PBS, 4° C., 250 μL) for 5 min and rinsed again with PBS (250 μL, 4° C.). The internalized activity was determined by incubation of LNCaP cells with 1 M aq. NaOH (250 μL) for at least 10 min and combination with the fraction of a subsequent wash step with 1 M aq. NaOH (200 μL). Each experiment (control and blockade) was performed in triplicate. […] All internalization studies were accompanied by reference studies using the reference compound XII (2 nM in HBSS add. 1% BSA, v/v), which were performed analogously. Data were corrected for non-specific internalization and normalized to the specific-internalization observed for the radioiodinated reference compound.

Where [3] appears, read: LNCaP cells (150.000 cells/well), reference [125I]XII c = 0.2 nM, 1 h, 4° C., HBSS add. 1% BSA, mean ± SD (n = 3).

SMILES strings stand for the structures. Read-outs that look alike come from different tables or passages of the source.

T1 sequence (P02768 25-609): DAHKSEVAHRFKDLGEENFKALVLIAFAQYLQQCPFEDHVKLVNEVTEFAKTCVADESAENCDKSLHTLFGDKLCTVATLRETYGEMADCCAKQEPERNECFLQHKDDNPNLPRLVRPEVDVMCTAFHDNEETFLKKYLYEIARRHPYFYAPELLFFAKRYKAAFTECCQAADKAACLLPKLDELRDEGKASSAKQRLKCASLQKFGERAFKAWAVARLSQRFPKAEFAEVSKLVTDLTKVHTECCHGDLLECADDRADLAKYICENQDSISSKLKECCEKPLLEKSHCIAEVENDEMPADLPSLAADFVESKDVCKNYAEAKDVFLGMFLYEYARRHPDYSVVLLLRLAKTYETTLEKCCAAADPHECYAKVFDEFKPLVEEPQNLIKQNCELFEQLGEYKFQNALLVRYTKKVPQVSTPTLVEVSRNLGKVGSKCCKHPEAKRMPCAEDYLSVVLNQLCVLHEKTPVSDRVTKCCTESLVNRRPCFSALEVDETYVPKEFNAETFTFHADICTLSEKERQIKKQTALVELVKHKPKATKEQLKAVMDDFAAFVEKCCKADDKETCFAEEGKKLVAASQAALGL
Sequence of PSMA (Q04609 whole entry): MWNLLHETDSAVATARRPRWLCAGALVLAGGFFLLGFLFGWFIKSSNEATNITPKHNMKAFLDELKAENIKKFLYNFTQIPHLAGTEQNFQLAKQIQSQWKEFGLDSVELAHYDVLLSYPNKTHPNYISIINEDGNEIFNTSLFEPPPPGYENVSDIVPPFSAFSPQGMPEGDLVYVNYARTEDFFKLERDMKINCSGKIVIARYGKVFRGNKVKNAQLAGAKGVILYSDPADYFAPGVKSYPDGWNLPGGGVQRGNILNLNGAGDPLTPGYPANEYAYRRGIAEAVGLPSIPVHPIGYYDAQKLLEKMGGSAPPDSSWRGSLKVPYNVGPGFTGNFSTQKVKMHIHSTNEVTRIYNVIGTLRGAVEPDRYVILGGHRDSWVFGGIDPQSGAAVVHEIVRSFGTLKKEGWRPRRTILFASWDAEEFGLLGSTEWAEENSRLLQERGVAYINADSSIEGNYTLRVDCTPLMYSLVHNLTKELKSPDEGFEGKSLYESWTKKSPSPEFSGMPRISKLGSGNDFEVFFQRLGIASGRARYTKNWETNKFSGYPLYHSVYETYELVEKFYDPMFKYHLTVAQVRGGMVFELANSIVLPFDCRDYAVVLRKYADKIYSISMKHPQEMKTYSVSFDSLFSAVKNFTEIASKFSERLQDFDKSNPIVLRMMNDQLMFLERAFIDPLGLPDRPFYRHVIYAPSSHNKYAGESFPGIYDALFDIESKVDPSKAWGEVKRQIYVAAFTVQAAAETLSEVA
Experimental for PSMA: LNCaP cells were grown in Dulbecco's Modified Eagle Medium/Nutrient Mixture F-12 (DMEM/F-12, add. 10% fetal calf serum (FCS), v/v) and maintained at 37° C. in a humidified 5% CO2 atmosphere. […] After removal of the culture medium, LNCaP cells were treated with HBSS (add. 1% BSA, v/v, 4° C., 500 μL) and subsequently left 15 min on ice for equilibration in HBSS (add. 1% BSA, v/v, 4° C., 200 μL). […] For the control series, HBSS (add. 1% BSA, v/v, 25 μL) was used instead of the SiFA-PSMA ligand solution. Each concentration and the control were prepared in triplicate. After 1 h incubation on ice, the assay medium was removed and cells were washed with HBSS (200 μL, 4° C.). […] NaOH (200 μL) for at least 10 min and the resulting cell lysate was removed. The wells were treated again with 1 M aq. […] The experiment was repeated for at least three times and the IC50 value calculated using the GraphPad PRISM 8.0.2 software (Graphpad Software Inc., La Jolla, United States).

As usually defined, the IC50 is the concentration at which inhibition is half-maximal. `CC(C)(C)[Si](F)(c1ccc(C(=O)NC[C@@H](NC(=O)[C@@H](CC(=O)O)NC(=O)CC[C@H](NC(=O)N[C@@H](CCC(=O)O)C(=O)O)C(=O)O)C(=O)N[C@H](CCCCNC(=O)CCC(=O)NCCC[C@@H](NC(=O)CC[C@H](NC(=O)N[C@@H](CCC(=O)O)C(=O)O)C(=O)O)C(=O)O)C(=O)O)cc1)C(C)(C)C` [SiFA-PSMA ligand 01 a]: on PSMA (setting [3]), the IC50 was 7.8 ± 0.8 nM. In addition, in data set [1], the “Binding to HSA” value is given as ≥99.0%. The logD7.4 in data set [2] is −4.02 ± 0.04. The Internalization with LNCaP cells stood at 162.54 ± 7.08%.
On PSMA (setting [3]), `CC(C)(C)[Si](F)(c1ccc(C(=O)NC[C@@H](NC(=O)[C@@H](CCC(=O)O)NC(=O)CC[C@H](NC(=O)N[C@@H](CCC(=O)O)C(=O)O)C(=O)O)C(=O)N[C@H](CCCCNC(=O)CCC(=O)NCCC[C@@H](NC(=O)CC[C@H](NC(=O)N[C@@H](CCC(=O)O)C(=O)O)C(=O)O)C(=O)O)C(=O)O)cc1)C(C)(C)C` [SiFA-PSMA ligand 01 b] registered an IC50 of 11.8 ± 2.2 nM. In addition, the “Binding to HSA” value in data set [1] is on record as ≥99.0%. In addition, the logD7.4 in data set [2] is reported as −4.04 ± 0.08. Also, in the data set on LNCaP cells, the Internalization is recorded as 126.43 ± 4.23%.
The molecule `CC(C)(C)[Si](F)(c1ccc(C(=O)NC[C@@H](NC(=O)[C@H](CCC(=O)O)NC(=O)CC[C@H](NC(=O)N[C@@H](CCC(=O)O)C(=O)O)C(=O)O)C(=O)N[C@H](CCCCNC(=O)CCC(=O)NCCC[C@@H](NC(=O)CC[C@H](NC(=O)N[C@@H](CCC(=O)O)C(=O)O)C(=O)O)C(=O)O)C(=O)O)cc1)C(C)(C)C` [SiFA-PSMA ligand 01 c] had an IC50 on PSMA (setting [3]) of 17 ± 0.9 nM. Further, the “Binding to HSA” value in data set [1] is on record as ≥98.9%. Further, the logD7.4 in data set [2] is reported as −3.72 ± 0.02. In the data set on LNCaP cells, the Internalization came to 175.08 ± 5.93%.
`CC(C)(C)[Si](F)(c1ccc(C(=O)NC[C@@H](NC(=O)[C@@H](CCCNC(N)=O)NC(=O)CC[C@H](NC(=O)N[C@@H](CCC(=O)O)C(=O)O)C(=O)O)C(=O)N[C@H](CCCCNC(=O)CCC(=O)NCCC[C@@H](NC(=O)CC[C@H](NC(=O)N[C@@H](CCC(=O)O)C(=O)O)C(=O)O)C(=O)O)C(=O)O)cc1)C(C)(C)C` [SiFA-PSMA ligand 01 d]: the IC50 at PSMA (setting [3]) was determined as 13 ± 1.2 nM. Besides, the “Binding to HSA” value in data set [1] is reported as ≥98.9%. Besides, the logD7.4 in data set [2] is −3.28 ± 0.03. Further, in the data set with LNCaP cells, the Internalization worked out at 95.68 ± 9.86%.
The corresponding values for `CC(C)(C)[Si](F)(c1ccc(C(=O)NC[C@@H](NC(=O)[C@@H](CN)NC(=O)CC[C@H](NC(=O)N[C@@H](CCC(=O)O)C(=O)O)C(=O)O)C(=O)N[C@H](CCCCNC(=O)CCC(=O)NCCC[C@@H](NC(=O)CC[C@H](NC(=O)N[C@@H](CCC(=O)O)C(=O)O)C(=O)O)C(=O)O)C(=O)O)cc1)C(C)(C)C` [SiFA-PSMA ligand 01 e] are 9.2 ± 1.4 nM, ≥99.0%, −3.96 ± 0.07 and 125.13 ± 1.14%.
On PSMA (setting [3]), `CC(C)(C)[Si](F)(c1ccc(C(=O)NC[C@@H](NC(=O)[C@@H](CCCN)NC(=O)CC[C@H](NC(=O)N[C@@H](CCC(=O)O)C(=O)O)C(=O)O)C(=O)N[C@H](CCCCNC(=O)CCC(=O)NCCC[C@@H](NC(=O)CC[C@H](NC(=O)N[C@@H](CCC(=O)O)C(=O)O)C(=O)O)C(=O)O)C(=O)O)cc1)C(C)(C)C` [SiFA-PSMA ligand 01 f] yielded an IC50 of 8.3 ± 1.5 nM. The “Binding to HSA” value in data set [1] was 98.9%. The logD7.4 in data set [2] is listed as −3.65 ± 0.09. In addition, the Internalization with LNCaP cells turned out to be 123.13 ± 2.14%.
Molecule `CC(C)(C)[Si](F)(c1ccc(C(=O)NC[C@@H](NC(=O)[C@@H](CCCCN)NC(=O)CC[C@H](NC(=O)N[C@@H](CCC(=O)O)C(=O)O)C(=O)O)C(=O)N[C@H](CCCCNC(=O)CCC(=O)NCCC[C@@H](NC(=O)CC[C@H](NC(=O)N[C@@H](CCC(=O)O)C(=O)O)C(=O)O)C(=O)O)C(=O)O)cc1)C(C)(C)C` [SiFA-PSMA ligand 01 g] returned an IC50 at PSMA (setting [3]) of 8.7 ± 0.7 nM. For the same molecule, in data set [1], the “Binding to HSA” value is 98.9%. Also, the logD7.4 in data set [2] is listed as −3.71 ± 0.03. Further, the Internalization in the data set on LNCaP cells amounted to 104.75 ± 4.37%.
On to `CC(C)(C)[Si](F)(c1ccc(C(=O)NC[C@@H](NC(=O)[C@H](CCCCN)NC(=O)CC[C@H](NC(=O)N[C@@H](CCC(=O)O)C(=O)O)C(=O)O)C(=O)N[C@H](CCCCNC(=O)CCC(=O)NCCC[C@@H](NC(=O)CC[C@H](NC(=O)N[C@@H](CCC(=O)O)C(=O)O)C(=O)O)C(=O)O)C(=O)O)cc1)C(C)(C)C` [SiFA-PSMA ligand 01 h], for which the IC50 on PSMA (setting [3]) was 8.7 ± 0.6 nM. In data set [1], the “Binding to HSA” value was determined as 98.7%. In addition, the logD7.4 in data set [2] is listed as −3.71 ± 0.16. Also, the Internalization in the data set on LNCaP cells was 142.95 ± 7.49%.
The corresponding values for `CC(C)(C)[Si](F)(c1ccc(C(=O)NC[C@@H](NC(=O)CNC(=O)CC[C@H](NC(=O)N[C@@H](CCC(=O)O)C(=O)O)C(=O)O)C(=O)N[C@H](CCCCNC(=O)CCC(=O)NCCC[C@@H](NC(=O)CC[C@H](NC(=O)N[C@@H](CCC(=O)O)C(=O)O)C(=O)O)C(=O)O)C(=O)O)cc1)C(C)(C)C` [SiFA-PSMA ligand 01 i] are 8.8 ± 1.7 nM, 98.9%, −3.96 ± 0.04 and 160.83 ± 2.72%.
The corresponding values for `C[C@H](O)[C@@H](NC(=O)CC[C@H](NC(=O)N[C@@H](CCC(=O)O)C(=O)O)C(=O)O)C(=O)N[C@H](CNC(=O)c1ccc([Si](F)(C(C)(C)C)C(C)(C)C)cc1)C(=O)N[C@H](CCCCNC(=O)CCC(=O)NCCC[C@@H](NC(=O)CC[C@H](NC(=O)N[C@@H](CCC(=O)O)C(=O)O)C(=O)O)C(=O)O)C(=O)O` [SiFA-PSMA ligand 01 j] are 9.2 ± 1.2 nM, ≥98.9%, −3.86 ± 0.07 and 120.83 ± 0.92%.
The corresponding values for `CC(C)(C)[Si](F)(c1ccc(C(=O)NC[C@@H](NC(=O)[C@@H](Cc2ccccc2)NC(=O)CC[C@H](NC(=O)N[C@@H](CCC(=O)O)C(=O)O)C(=O)O)C(=O)N[C@H](CCCCNC(=O)CCC(=O)NCCC[C@@H](NC(=O)CC[C@H](NC(=O)N[C@@H](CCC(=O)O)C(=O)O)C(=O)O)C(=O)O)C(=O)O)cc1)C(C)(C)C` [SiFA-PSMA ligand 01 k] are 29.4 ± 0.6 nM, ≥98.9%, −2.99 ± 0.02 and 61.61 ± 1.33%.
In turn, `CC(C)(C)[Si](F)(c1ccc(C(=O)NC[C@@H](NC(=O)[C@H](N)CNC(=O)CC[C@H](NC(=O)N[C@@H](CCC(=O)O)C(=O)O)C(=O)O)C(=O)N[C@H](CCCCNC(=O)CCC(=O)NCCC[C@@H](NC(=O)CC[C@H](NC(=O)N[C@@H](CCC(=O)O)C(=O)O)C(=O)O)C(=O)O)C(=O)O)cc1)C(C)(C)C` [SiFA-PSMA ligand 02 a] showed an IC50 at PSMA of 10.2 ± 1.2 nM. Besides, the “Binding to HSA” value in data set [1] is on record as ≥98.9%. Also, in data set [2], the logD7.4 was −3.65 ± 0.09. In the data set with LNCaP cells, the Internalization is given as 231.60 ± 14.21%.
The molecule `CC(C)(C)[Si](F)(c1ccc(C(=O)N[C@H](CC(=O)N[C@H](CC(=O)NCCC[C@@H](NC(=O)c2cc(C(=O)O)cc(C(=O)O)c2)C(=O)NCCCC[C@@H](NC(=O)CC[C@H](NC(=O)N[C@@H](CCC(=O)O)C(=O)O)C(=O)O)C(=O)O)C(=O)O)C(=O)N[C@H](CC(=O)NCCC[C@@H](NC(=O)c2cc(C(=O)O)cc(C(=O)O)c2)C(=O)NCCCC[C@@H](NC(=O)CC[C@H](NC(=O)N[C@@H](CCC(=O)O)C(=O)O)C(=O)O)C(=O)O)C(=O)O)cc1)C(C)(C)C` [SiFA-PSMA ligand 07] had an IC50 on PSMA of 5.5 ± 0.6 nM. In addition, the logD7.4 in data set [2] was −3.45 ± 0.01. The Internalization with LNCaP cells turned out to be 311.75 ± 7.30%.
